This passage reports EC50 and CC50 results from US9149538B2, “Oligomer conjugates of heteropentacyclic nucleosides” (priority 2008, dated 2015).

One data set has as its system BVDV NADL. Briefly: Anti-Bovine Diarrhea Virus (surrogate Hepatitis C) cytoprotection assay (XTT) in MDBK cells. Format: cell-based, Bovine Viral Diarrhea virus. The following applies: inhibition of virus-induced cell killing, 100 μM high test concentration. A general note: Tetrazolium assays rely on reduction of a dye to a coloured formazan, in cell work by metabolically active cells.

In another data set the test system is MDBK cells. The conditions noted are these: read-out: TC50, cells plus drug only, XTT.
Data set [1] concerns Influenza A/Hong Kong/8/68. Briefly: microbe, parasite or virus in culture. Format: cell-based, influenza type A.
The nature of the next data set: in vitro. The conditions noted are these: dog.

Like-named read-outs stand apart in the source and are kept apart here.

As a reminder, the EC50 is the concentration at which the effect is half-maximal. `COCCOCCOCCOCCOCCNC(=O)c1ncn([C@@H]2O[C@H](CO)[C@@H](O)[C@H]2O)n1` [mPEG5-N-Ribavirin]: the EC50 (in the data set with BVDV NADL; in data set [1] (read-out: EC50)) was greater than 100 µM each time. Further, the CC50 in the data set on MDBK cells and in the data set with MDCK cells was greater than 100 µM in each case.
Take `COCCOCCOCCOCCOCCN(CCOCCOCCOCCOCCOC)C(=O)c1ncn([C@@H]2O[C@H](CO)[C@@H](O)[C@H]2O)n1` [Di-mPEG5-N-Ribavirin]: the EC50 was greater than 100 µM in the data set on BVDV NADL and 5.5 µM in data set [1] (read-out: EC50). In addition, the CC50 in the data set on MDBK cells was greater than 100 µM; in the data set with MDCK cells, 19.5 µM.
As to `COCCOCCOCCOCCOCCOCCOCCN(CCOCCOCCOCCOCCOCCOCCOC)C(=O)c1ncn([C@@H]2O[C@H](CO)[C@@H](O)[C@H]2O)n1` [Di-mPEG7-N-Ribavirin], the EC50 (with BVDV NADL; in data set [1] (read-out: EC50)) was greater than 100 µM in each case. In addition, the CC50 in the data set on MDBK cells and in the data set with MDCK cells was greater than 100 µM each time.
Regarding `NC(=O)c1ncn([C@@H]2O[C@H](CO)[C@@H](O)[C@H]2O)n1` [Ribavirin, ribavirin, reference compound], the EC50 in the data set with BVDV NADL (Bovine viral diarrhea virus isolates and strains, MDBK) was 8.1 µM; in the data set with BVDV NADL it was 5.2 µM; in data set [1] it was 16.3 µM; in data set [1] (Influenza A virus, MDCK) it was 18.2 µM. Moreover, the CC50 in “in vitro” (TC50) is 50 µM; in the data set on MDCK cells (dog) it was 79 µM.
On to `COCCOCCOCCOCCOCCOCCOCCNC(=N)c1ncn([C@@H]2O[C@H](CO)[C@@H](O)[C@H]2O)n1` [mPEG7-N-Ribamidine], for which the concentration for a half-maximal effect (EC50) (in the data set with BVDV NADL; in data set [1] (read-out: EC50)) was greater than 100 µM in each case. Moreover, the CC50 with MDBK cells and in the data set on MDCK cells was greater than 100 µM each time.
Turning to `COCCOCCOCCOCCOCCOCCNC(=N)c1ncn([C@@H]2O[C@H](CO)[C@@H](O)[C@H]2O)n1` [mPEG6-N-Ribamidine], the concentration giving a half-maximal response (EC50) (with BVDV NADL; in data set [1] (read-out: EC50)) was greater than 100 µM each time. Also, the CC50 was 87.6 µM in the data set on MDBK cells and greater than 100 µM in the data set with MDCK cells.
Take `NC12CC3CC(CC(C3)C1)C2` [Amantadine, amantadine, reference compound]: in the data set “in vitro” (TC50, MDCK cells, cells plus drug only, XTT), the CC50 was greater than 10 µM. In data set [1] (Influenza A virus, MDCK, MDCK/Influenza A/Hong Kong/8/68, inhibition of virus-induced cell killing, XTT, 100 μM high test concentration, read-out: EC50), the EC50 came out at 0.1 µM.
For `COCCOCCOCCNC(=N)c1ncn([C@@H]2O[C@H](CO)[C@@H](O)[C@H]2O)n1` [mPEG3-N-Ribamidine], the half-maximal effective concentration (EC50) is greater than 100 µM in the data set with BVDV NADL and 67.8 µM in data set [1] (read-out: EC50). Also, the CC50 with MDBK cells and with MDCK cells was greater than 100 µM in each case.
